PubChem BioAssay AID1963843 (Molecular Pharmacology Branch, DTP, NCI, 2024)

Test system: 616215-338-R-J1-PDC complex spheroid viability
Assay: Anticancer human tumor 616215-338-R-J1-PDC patient-derived colon adenocarcinoma cell line growth inhibition [POLQ]
Conditions: for IC50: curve of first compound; for viability, T/C: stronger effect = lower value
In short: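 Patient-derived tumour cells were co-cultured with HUVEC and mesenchymal stem cells as multicellular spheroids at 37 °C. They were treated with POLQ inhibitors (novobiocin, ART-558, RP6685) alone or combined with other agents. Top concentrations were at or near clinical Cmax (otherwise 10 microM; SN-38 at 1 microM), decreasing in half-log steps.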

[1] = second compound 0.0316 µM, first compound 0.0316 µM
[2] = second compound 0.0316 µM, first compound 0.1 µM
[3] = second compound 0.0316 µM, first compound 0.316 µM
[4] = second compound 0.0316 µM, first compound 1 µM
[5] = second compound 0.0316 µM, first compound 3.16 µM
[6] = second compound 0.0316 µM, first compound 10 µM
[7] = second compound 0.1 µM, first compound 0.0316 µM
[8] = second compound 0.1 µM, first compound 0.1 µM
[9] = second compound 0.1 µM, first compound 0.316 µM
[10] = second compound 0.1 µM, first compound 1 µM
[11] = second compound 0.1 µM, first compound 3.16 µM
[12] = second compound 0.1 µM, first compound 10 µM
[13] = second compound 0.316 µM, first compound 0.0316 µM
[14] = second compound 0.316 µM, first compound 0.1 µM
[15] = second compound 0.316 µM, first compound 0.316 µM
[16] = second compound 0.316 µM, first compound 1 µM
[17] = second compound 0.316 µM, first compound 3.16 µM
[18] = second compound 0.316 µM, first compound 10 µM
[19] = second compound 1 µM, first compound 0.0316 µM
[20] = second compound 1 µM, first compound 0.1 µM
[21] = second compound 1 µM, first compound 0.316 µM
[22] = second compound 1 µM, first compound 1 µM
[23] = second compound 1 µM, first compound 3.16 µM
[24] = second compound 1 µM, first compound 10 µM
[25] = second compound 3.16 µM, first compound 0.0316 µM
[26] = second compound 3.16 µM, first compound 0.1 µM
[27] = second compound 3.16 µM, first compound 0.316 µM
[28] = second compound 3.16 µM, first compound 1 µM
[29] = second compound 3.16 µM, first compound 3.16 µM
[30] = second compound 3.16 µM, first compound 10 µM
[31] = second compound 10 µM, first compound 0.0316 µM
[32] = second compound 10 µM, first compound 0.1 µM
[33] = second compound 10 µM, first compound 0.316 µM
[34] = second compound 10 µM, first compound 1 µM
[35] = second compound 10 µM, first compound 3.16 µM
[36] = second compound 10 µM, first compound 10 µM
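Further: spheroids exposed to compounds for one week before readout.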
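Wherever viability, T/C is given: percent viability relative to DMSO vehicle wells taken as 100%.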

SMILES: C=CC(=O)N1CCN(c2nc(=O)n(-c3c(C)ccnc3C(C)C)c3nc(-c4c(O)cccc4F)c(F)cc23)C(C)C1 (stereo not given) + COC1C(OC(N)=O)C(O)C(Oc2ccc3c(O)c(NC(=O)c4ccc(O)c(CC=C(C)C)c4)c(=O)oc3c2C)OC1(C)C
- IC50 (second compound 0.0316 µM): > 10 µM
- IC50 (second compound 0.1 µM): > 10 µM
- IC50 (second compound 0.316 µM): > 10 µM
- IC50 (second compound 1 µM): > 10 µM
- IC50 (second compound 3.16 µM): > 10 µM
- IC50 (second compound 10 µM): > 10 µM
- viability, T/C [1]: 105%
- viability, T/C [2]: 99.7%
- viability, T/C [3]: 98.4%
- viability, T/C [4]: 108%
- viability, T/C [5]: 113%
- viability, T/C [6]: 106%
- viability, T/C [7]: 98.4%
- viability, T/C [8]: 98.1%
- viability, T/C [9]: 98%
- viability, T/C [10]: 93.3%
- viability, T/C [11]: 104%
- viability, T/C [12]: 87.8%
- viability, T/C [13]: 104%
- viability, T/C [14]: 99.7%
- viability, T/C [15]: 99.6%
- viability, T/C [16]: 95%
- viability, T/C [17]: 107%
- viability, T/C [18]: 95.8%
- viability, T/C [19]: 96.9%
- viability, T/C [20]: 95.8%
- viability, T/C [21]: 94%
- viability, T/C [22]: 101%
- viability, T/C [23]: 105%
- viability, T/C [24]: 90.6%
- viability, T/C [25]: 94.8%
- viability, T/C [26]: 103%
- viability, T/C [27]: 94.3%
- viability, T/C [28]: 95%
- viability, T/C [29]: 104%
- viability, T/C [30]: 70.4%
- viability, T/C [31]: 99.7%
- viability, T/C [32]: 94.3%
- viability, T/C [33]: 98%
- viability, T/C [34]: 102%
- viability, T/C [35]: 102%
- viability, T/C [36]: 83.6%

SMILES: CC(C)n1c(=O)n(C)c2cnc3cc(F)c(-c4ccc(OCCCN5CCCCC5)nc4)cc3c21 + COC1C(OC(N)=O)C(O)C(Oc2ccc3c(O)c(NC(=O)c4ccc(O)c(CC=C(C)C)c4)c(=O)oc3c2C)OC1(C)C
- IC50 (second compound 0.0316 µM): > 10 µM
- IC50 (second compound 0.1 µM): > 10 µM
- IC50 (second compound 0.316 µM): > 10 µM
- IC50 (second compound 1 µM): > 10 µM
- IC50 (second compound 3.16 µM): > 10 µM
- IC50 (second compound 10 µM): > 10 µM
- viability, T/C [1]: 92.8%
- viability, T/C [2]: 94.6%
- viability, T/C [3]: 104%
- viability, T/C [4]: 109%
- viability, T/C [5]: 130%
- viability, T/C [6]: 104%
- viability, T/C [7]: 97.8%
- viability, T/C [8]: 98.6%
- viability, T/C [9]: 101%
- viability, T/C [10]: 108%
- viability, T/C [11]: 112%
- viability, T/C [12]: 113%
- viability, T/C [13]: 108%
- viability, T/C [14]: 98.6%
- viability, T/C [15]: 104%
- viability, T/C [16]: 99.6%
- viability, T/C [17]: 121%
- viability, T/C [18]: 99.5%
- viability, T/C [19]: 117%
- viability, T/C [20]: 117%
- viability, T/C [21]: 95.2%
- viability, T/C [22]: 106%
- viability, T/C [23]: 116%
- viability, T/C [24]: 102%
- viability, T/C [25]: 112%
- viability, T/C [26]: 111%
- viability, T/C [27]: 109%
- viability, T/C [28]: 105%
- viability, T/C [29]: 99.6%
- viability, T/C [30]: 93.2%
- viability, T/C [31]: 99.9%
- viability, T/C [32]: 102%
- viability, T/C [33]: 101%
- viability, T/C [34]: 102%
- viability, T/C [35]: 107%
- viability, T/C [36]: 94.5%

SMILES: CC1COCCN1c1cc(-c2ccnn2C)c2ccnc(-c3ccn[nH]3)c2n1 (stereo not given) + COC1C(OC(N)=O)C(O)C(Oc2ccc3c(O)c(NC(=O)c4ccc(O)c(CC=C(C)C)c4)c(=O)oc3c2C)OC1(C)C
- IC50 (second compound 0.0316 µM): 0.862 µM
- IC50 (second compound 0.1 µM): 0.608 µM
- IC50 (second compound 0.316 µM): 0.619 µM
- IC50 (second compound 1 µM): 0.61 µM
- IC50 (second compound 3.16 µM): 0.804 µM
- IC50 (second compound 10 µM): 0.635 µM
- viability, T/C [1]: 102%
- viability, T/C [2]: 90.4%
- viability, T/C [3]: 70.4%
- viability, T/C [4]: 48.4%
- viability, T/C [5]: 31.5%
- viability, T/C [6]: 33%
- viability, T/C [7]: 96.4%
- viability, T/C [8]: 91.1%
- viability, T/C [9]: 60.8%
- viability, T/C [10]: 44%
- viability, T/C [11]: 30.5%
- viability, T/C [12]: 38.7%
- viability, T/C [13]: 99.6%
- viability, T/C [14]: 86.1%
- viability, T/C [15]: 59.3%
- viability, T/C [16]: 46.1%
- viability, T/C [17]: 29.7%
- viability, T/C [18]: 40.2%
- viability, T/C [19]: 103%
- viability, T/C [20]: 84.8%
- viability, T/C [21]: 58.9%
- viability, T/C [22]: 46.1%
- viability, T/C [23]: 29%
- viability, T/C [24]: 36.1%
- viability, T/C [25]: 96.1%
- viability, T/C [26]: 86.4%
- viability, T/C [27]: 68.6%
- viability, T/C [28]: 47.6%
- viability, T/C [29]: 28.7%
- viability, T/C [30]: 30.9%
- viability, T/C [31]: 96.8%
- viability, T/C [32]: 86.9%
- viability, T/C [33]: 57.3%
- viability, T/C [34]: 47.7%
- viability, T/C [35]: 29.1%
- viability, T/C [36]: 31%

SMILES: CC1COCCN1c1cc(C2(S(C)(=N)=O)CC2)nc(-c2ccnc3[nH]ccc23)n1 (stereo not given) + COC1C(OC(N)=O)C(O)C(Oc2ccc3c(O)c(NC(=O)c4ccc(O)c(CC=C(C)C)c4)c(=O)oc3c2C)OC1(C)C
- IC50 (second compound 0.0316 µM): > 10 µM
- IC50 (second compound 0.1 µM): > 10 µM
- IC50 (second compound 0.316 µM): > 10 µM
- IC50 (second compound 1 µM): > 10 µM
- IC50 (second compound 3.16 µM): > 10 µM
- IC50 (second compound 10 µM): > 10 µM
- viability, T/C [1]: 93.8%
- viability, T/C [2]: 104%
- viability, T/C [3]: 100%
- viability, T/C [4]: 98.5%
- viability, T/C [5]: 98.5%
- viability, T/C [6]: 67.1%
- viability, T/C [7]: 98.2%
- viability, T/C [8]: 91.7%
- viability, T/C [9]: 101%
- viability, T/C [10]: 96.6%
- viability, T/C [11]: 92.3%
- viability, T/C [12]: 73.9%
- viability, T/C [13]: 97.7%
- viability, T/C [14]: 103%
- viability, T/C [15]: 105%
- viability, T/C [16]: 95.5%
- viability, T/C [17]: 97.2%
- viability, T/C [18]: 65.1%
- viability, T/C [19]: 99.3%
- viability, T/C [20]: 99.1%
- viability, T/C [21]: 108%
- viability, T/C [22]: 104%
- viability, T/C [23]: 94.2%
- viability, T/C [24]: 63.9%
- viability, T/C [25]: 107%
- viability, T/C [26]: 100%
- viability, T/C [27]: 108%
- viability, T/C [28]: 94%
- viability, T/C [29]: 94.5%
- viability, T/C [30]: 60.6%
- viability, T/C [31]: 96.8%
- viability, T/C [32]: 95.3%
- viability, T/C [33]: 100%
- viability, T/C [34]: 98.6%
- viability, T/C [35]: 98.7%
- viability, T/C [36]: 61.8%

SMILES: COc1ccc([C@@H](O)c2cc(-c3ncnc4cc(N5CCOCC5)ccc34)c(F)cc2Cl)nn1 + COC1C(OC(N)=O)C(O)C(Oc2ccc3c(O)c(NC(=O)c4ccc(O)c(CC=C(C)C)c4)c(=O)oc3c2C)OC1(C)C
- IC50 (second compound 0.0316 µM): > 10 µM
- IC50 (second compound 0.1 µM): > 10 µM
- IC50 (second compound 0.316 µM): > 10 µM
- IC50 (second compound 1 µM): > 10 µM
- IC50 (second compound 3.16 µM): > 10 µM
- IC50 (second compound 10 µM): > 10 µM
- viability, T/C [1]: 109%
- viability, T/C [2]: 105%
- viability, T/C [3]: 110%
- viability, T/C [4]: 99.4%
- viability, T/C [5]: 105%
- viability, T/C [6]: 76.1%
- viability, T/C [7]: 109%
- viability, T/C [8]: 99%
- viability, T/C [9]: 109%
- viability, T/C [10]: 109%
- viability, T/C [11]: 113%
- viability, T/C [12]: 73.5%
- viability, T/C [13]: 107%
- viability, T/C [14]: 101%
- viability, T/C [15]: 108%
- viability, T/C [16]: 100%
- viability, T/C [17]: 114%
- viability, T/C [18]: 77.7%
- viability, T/C [19]: 96.7%
- viability, T/C [20]: 101%
- viability, T/C [21]: 116%
- viability, T/C [22]: 117%
- viability, T/C [23]: 110%
- viability, T/C [24]: 66.3%
- viability, T/C [25]: 95.7%
- viability, T/C [26]: 104%
- viability, T/C [27]: 100%
- viability, T/C [28]: 119%
- viability, T/C [29]: 108%
- viability, T/C [30]: 69.7%
- viability, T/C [31]: 104%
- viability, T/C [32]: 94.2%
- viability, T/C [33]: 111%
- viability, T/C [34]: 107%
- viability, T/C [35]: 110%
- viability, T/C [36]: 66.5%
